Here are results for 14 compounds from patent publication EP0095451A2, “Novel dihydropyridines” (priority 1982, dated 1983).

Assay [1] has as its system spontaneously hypertensive rats (SHR) of the Okamoto strain. As to the kind of experiment: Antihypertensive effect in conscious, unrestrained spontaneously hypertensive rats, oral cumulative dosing. It is filed as in vivo. Conditions: Rattus norvegicus; dose giving 20 per cent reduction of mean arterial BP, by interpolation; oral intubation in methocel, cumulated doses 1, 5 and 25 µmoles/kg at 2 hour intervals. The procedure: The antihypertensive effect of the compounds was tested in conscious, unrestrained spontaneously hypertensive rats (SHR) of the Okamoto strain. The animals had been prepared by prior implantation of indwelling catheters in the abdominal aorta via the femoral artery. Mean arterial blood pressure (MABP) and heart rate were continuously monitored. After a 2 hour control period the compound under study was administered by oral intubation at 2 hour intervals, suspended in methocel solution (5 ml/kg bodyweight). The cumulated doses were 1, 5 and 25)jmoles/kg bodyweight. The antihypertensive response, i.e. the BP'reduction to each dose, was expressed as a percentage of the initial control BP level and plotted against the dose on a logarithmic scale. The dose which would give 20 per cent BP reduction was then determined by interpolation.

Assay [2] relates to isolated portal vein preparation / paced isolated papillary heart muscle preparation. Nature of the assay: Specificity towards smooth muscle relaxation: isolated portal vein versus paced papillary heart muscle in an organ bath. Also on record: species or system Wistar rats. Conditions: separation value: averaged difference of -log ED50 portal vein (vasodilatation) and -log ED50 papillary muscle (myocardial depression), transformed into numeric format. The procedure: The specificity towards smooth muscle relaxation was examined as follows: The isolated portal vein preparation of Wistar rats was mounted in an organ bath together with a paced isolated papillary heart muscle preparation of the same animal. The integrated contractile activity of the portal vein smooth muscle and the peak force amplitude of the papillary, myocardial, preparation were recorded. The respective activities during a 30 min control period were set as 100 per cent and the ensuing activities under the influence of an agent under study were expressed as a percentage thereof. The agent was administered at 10 min intervals and the potency for vasodilatation (-log ED50 of portal vein) and that of myocardial depression (-log ED50 of ^pa^pill- ary muscle) were determined by interpolation from the concentration-effect relationships determined in each experiment. A "separation" value was determined for each compound by averaging the differences of the -log ED50 values for vasodilatation and myocardial depression, respectively, ogtained in the experiments. This logarithmic separation value was transformed into numeric format and entered into table 2.

For the compound `COC(=O)C1=C(C)NC(C)=C(C(=O)OCCSCCN(C)C)C1c1cccc(Cl)c1Cl` (stereo not drawn) [Compound 4, 2,6-dimethyl-4-(2,3-dichlorophenyl)-1,4-dihydropyridine-3,5-dicarboxylic acid-3-[2-(2-N,N-dimethyl-aminoethylthio)ethyl]-5-methyl ester], the ED20 in assay [1] is 19 µmol/kg. In addition, the Ratio heart vasc. in assay [2] is reported as 3.
Compound `CCOC(=O)C1=C(C)NC(C)=C(C(=O)OCCSCCN(C)C)C1c1cccc(Cl)c1Cl` (stereo not drawn) [Compound 6, 2,6-dimethyl-4-(2,3-dichlorophenyl]-1,4-dihydropyridine--3,5-dicarboxylic acid-3-[2-(2-N,N-dimethylaminoethylthio)-ethyl]-5-ethyl ester] gave an ED20 in assay [1] of 25 µmol/kg. Also, the Ratio heart vasc. in assay [2] amounted to 16.
In the same order, the values of `COC(=O)C1=C(C)NC(C)=C(C(=O)OCCSCCN2CCOCC2)C1c1cccc(Cl)c1Cl` (stereo not drawn) [Compound 9, 2,6-dimethyl-4-(2,3-dichlorophenyl)-1,4-dihydropyridine--3,5-dicarboxylic acid-3-[2-(2-morpholinoethylthio)-ethyl]--5-methyl ester] are 5 µmol/kg and 27.
The like results for `CC1=C(C(=O)OCCSCCN(C)C)C(c2cccc(Cl)c2Cl)C(C(=O)OC(C)C)=C(C)N1` (stereo not drawn) [Compound 5, 2,6-dimethyl-4-(2,3-dichlorophenyl)-1,4-dihydropyridine--3,5-dicarboxylic acid-3-[2-(2-N,N-dimethylaminoethylthio)-ethyl)-5-(2-methylethyl)ester] were, in that order, 20 µmol/kg and 19.
In the same order, the values of `COC(=O)C1=C(C)NC(C)=C(C(=O)OCCSCCN(C)C)C1c1ccccc1[N+](=O)[O-]` (stereo not drawn) [Compound 2, 2,6-dimethyl-4-(2-nitrophenyl)-1,4-dihydropyridine-3,5--dicarboxylic acid-3-[2-(2-N,N-dimethylaminoethylthio)ethyl]--5-methyl ester] are 30 µmol/kg and 5.
With `COC(=O)C1=C(C)NC(C)=C(C(=O)OCCSCCCN(C)C)C1c1cccc(Cl)c1Cl` (stereo not drawn) [Compound 11, 2,6-dimethyl-4-(2,3-dichlorophenyl)-1,4-dihydropyridine--3,5-dicarboxylic acid-3-[2-(3-N,N-dimethylaminopropylthio)-ethyl]-5-methyl ester], the Ratio heart vasc. in assay [2] stood at 3.
In assay [1], `COCCOC(=O)C1=C(C)NC(C)=C(C(=O)OCCSCCN(C)C)C1c1cccc(Cl)c1Cl` (stereo not drawn) [Compound 7, 2,6-dimethyl-4-(2,3-dichlorophenyl)-1,4-dihydropyridine--3,5-dicarboxylic acid-3-[2-(2-N,N-dimethylaminoetylthio-ethyl]-5-12-methoxyethyl) ester] gave an ED20 of 56 µmol/kg. For the same compound, in assay [2], the Ratio heart vasc. was found to be 20.
`COC(=O)C1=C(C)NC(C)=C(C(=O)OCCSCCN(Cc2ccccc2)C(C)C)C1c1cccc(Cl)c1Cl` (stereo not drawn) [Compound 10]: the ED20 in assay [1] is 9 µmol/kg. In addition, in assay [2], the Ratio heart vasc. amounted to 22.
The compound `COC(=O)C1=C(C)NC(C)=C(C(=O)OC)C1c1ccccc1[N+](=O)[O-]` [Nifedipine, 2,6-dimethyl-4-(2-nitrophenyl)-1,4-dihydropyridine-3,5-dicarboxylic acid-3,5-dimethylester, reference compound] returned an ED20 in assay [1] of 5 µmol/kg. Also, the Ratio heart vasc. in assay [2] turned out to be 15.
In the same order, the values of `COCCOC(=O)C1=C(C)NC(C)=C(C(=O)OCCSCCN(Cc2ccccc2)C(C)C)C1c1cccc(Cl)c1Cl` (stereo not drawn) [Compound 12, 2,6-dimethyl-4-(2,3-dichlorophenyl)-1,4-dihydropyridine--3,5-dicarboxylic acid-3-[2-(2-N-isopropyl-N-benzylethyl-thio)ethyl]-5-(2-methoxyethyl) ester] are 26 µmol/kg and 50.
In the same order, the values of `COC(=O)C1=C(C)NC(C)=C(C(=O)OCCSCCN(C)C)C1c1cccc([N+](=O)[O-])c1` (stereo not drawn) [Compound 1, 2,6-dimethyl-4-(3-nitrophenyl)-1,4-dihydropyridine-3,5--dicarboxylic acid-3-[2-(N,N-dimethylaminoethylthio)ethyl]--5-methyl ester] are 16 µmol/kg and 30.
Compound `COCCOC(=O)C1=C(C)NC(C)=C(C(=O)OCCSCCN2CCOCC2)C1c1cccc(Cl)c1Cl` (stereo not drawn) [Compound 13, 2,6-dimethyl-4-(2,3-dichlorophenyl)-1,4-dihydropyridine-3,5-dicarboxylic acid-3-[2-(2-morpholinoethyl-thio)ethyl]-5-(2-methoxethyl) ester] came in with an ED20 in assay [1] of 15 µmol/kg. In addition, in assay [2], the Ratio heart vasc. is given as 70.
In the same order, the values of `COC(=O)C1=C(C)NC(C)=C(C(=O)OCCSCCN(C)C)C1c1cccc(C#N)c1` (stereo not drawn) [Compound 3, 2,6-dimethyl-4-(3-cyanophenyl)-1,4-dihydropyridine-3,5--dicarboxylic acid-3-[2-(2-N,N-dimethylaminoethylthio)ethyl)--5-methyl ester] are 50 µmol/kg and 18.
With `CCN(CC)CCSCCOC(=O)C1=C(C)NC(C)=C(C(=O)OC)C1c1cccc(Cl)c1Cl` (stereo not drawn) [Compound 8], the ED20 in assay [1] was 6 µmol/kg. The Ratio heart vasc. in assay [2] is listed as 4.
